Each structure is given as a SMILES string.

Three compounds from article PMC11279778 (2024) can be followed below.

The subject of the test is Bcl-2 G-quadruplex (2F8U, 23-mer with 15,16-G-to-T mutations) (DNA, G4) GGGCGCGGGAGGAATTGGGCGGG
The experiment in a line: CD melting at 265 nm. Conditions: 100 mM KCl; 10 mM Tris-HCl pH 7.2; 3 eq ligand, 2 µM DNA.

In the case of `CC[n+]1c(/C=C/c2ccc3c(c2)c2ccccc2n3CCCCn2ccnc2)sc2ccccc21`, the thermal shift (ΔTm) (in general, the change in melting temperature against a reference sample) was 6.3 °C.
As for `CC[n+]1c(/C=C/c2ccc3c(c2)c2ccccc2n3CCCCn2cncn2)sc2ccccc21`, the figure is 3.0 °C.
As for `CCn1c2ccccc2c2cc(/C=C/c3sc4ccccc4[n+]3CC)ccc21`, the figure is 3.1 °C.
